Source: ChEMBL document CHEMBL6134827, “The discovery of novel antimicrobial peptides against drug-resistant bacteria based on fragments fusion strategy” (Eur J Med Chem, 2025)
Activity calls are given as the source filed them. No cut-off for these calls is given here. Non-standard residues stand in square brackets, D forms with d. Residues, ends and D or L forms follow the SMILES beside them. Dab = NCC[C@H](N)C(=O)O

How the values were obtained:
[1] = Toxicity in female C57BL/6 mouse assessed as histopathological change in liver at 20 mg/kg, ip administered daily and measured for 5 days by H and E staining based analysis; assay type: organism-based; conditions: in vivo, 120 h, time 5 day
Pseudomonas aeruginosa [2] = test: Antibacterial activity against multidrug resistant Pseudomonas aeruginosa assessed as reduction in bacterial growth at 32 microg/mL by bactericidal kinetic assay; assay type: functional, organism-based; conditions: dose 32.0 µg/ml, time 0.5-4 hrs
Staphylococcus aureus [3] = test: Induction of morphological changes in multidrug resistant Staphylococcus aureus assessed as presence of cellular debris at 16 microg/ml incubated for 1 hrs by SEM analysis; assay type: functional, organism-based; conditions: dose 16.0 µg/ml
[4] = Hepatotoxicity in female C57BL/6 mouse assessed as change in ALT level at 20 mg/kg, ip administered daily and measured for 5 days; assay type: toxicity, organism-based; conditions: in vivo, 120 h, time 5 day
Pseudomonas aeruginosa [5] = test: Induction of morphological changes in multidrug resistant Pseudomonas aeruginosa assessed as presence of cellular debris at 16 microg/ml incubated for 1 hrs by SEM analysis; assay type: functional, organism-based; conditions: dose 16.0 µg/ml
Pseudomonas aeruginosa [6] = test: In vivo antibacterial activity against multidrug resistant Pseudomonas aeruginosa infected in acute peritonitis C57BL/6 mouse model assessed as reduction in bacterial load in kidney at 10 to 20 mg/kg, ip measured after 12 hrs; assay type: functional, organism-based; conditions: dose 10-20 mg/kg
Pseudomonas aeruginosa [7] = test: In vivo antibacterial activity against multidrug resistant Pseudomonas aeruginosa infected in acute peritonitis C57BL/6 mouse model assessed as decrease in TNF-alpha level in serum at 5 to 20 mg/kg, ip measured after 12 hrs by ELISA; assay type: functional, organism-based; conditions: dose 5-20 mg/kg
Pseudomonas aeruginosa [8] = test: Induction of morphological changes in multidrug resistant Pseudomonas aeruginosa assessed as surface roughening at 16 microg/ml incubated for 1 hrs by SEM analysis; assay type: functional, organism-based; conditions: dose 16.0 µg/ml
Pseudomonas aeruginosa [9] = test: Antimicrobial activity against multidrug resistant Pseudomonas aeruginosa at 1.9 to 500 microg/ml in presence of phosphatidylcholine by checkerboard microdilution assay; assay type: functional, organism-based; conditions: dose 1.9-500 µg/ml
[10] = Toxicity in female C57BL/6 mouse assessed as effect on body weight at 20 mg/kg, ip administered daily and measured for 5 days; assay type: organism-based; conditions: in vivo, 120 h, time 5 day
[11] = Stability in 25% human plasma assessed as compound remaining measured after 24 hrs by RP-HPLC analysis; assay type: ADME, cell-free; conditions: 25% plasma, read-out: Stability
[12] = Nephrotoxicity in female C57BL/6 mouse assessed as change in BUN level at 20 mg/kg, ip administered daily and measured for 5 days; assay type: toxicity, organism-based; conditions: in vivo, 120 h, time 5 day
Pseudomonas aeruginosa [13] = test: In vivo antibacterial activity against multidrug resistant Pseudomonas aeruginosa infected in acute peritonitis C57BL/6 mouse model assessed as decrease in IL-6 level in serum at 5 to 20 mg/kg, ip measured after 12 hrs by ELISA; assay type: functional, organism-based; conditions: dose 5-20 mg/kg
Cell membrane [14] = test: Disruption of cell membrane in multidrug resistant Pseudomonas aeruginosa assessed as increase in red fluorescence at 16 microg/mL incubated after 2 hrs by SYTO9/PI double staining based fluorescence confocal microscopic analysis; assay type: subcellular; conditions: dose 16.0 µg/ml
Pseudomonas aeruginosa [15] = test: In vivo antibacterial activity against multidrug resistant Pseudomonas aeruginosa infected in acute peritonitis C57BL/6 mouse model assessed as increase in mouse survival at 5 to 20 mg/kg, ip measured after 12 hrs; assay type: functional, organism-based; conditions: dose 5-20 mg/kg
Pseudomonas aeruginosa [16] = test: In vivo antibacterial activity against multidrug resistant Pseudomonas aeruginosa infected in acute peritonitis C57BL/6 mouse model assessed as reduction in bacterial load in lung at 10 to 20 mg/kg, ip measured after 12 hrs; assay type: functional, organism-based; conditions: dose 10-20 mg/kg
Escherichia coli = test: Antimicrobial activity against multidrug resistant Escherichia coli assessed as inhibition of visible microbial growth incubated for 18 hrs by broth microdilution method; assay type: functional
Staphylococcus aureus [17] = test: Antimicrobial activity against Staphylococcus aureus ATCC 29213 assessed as inhibition of visible microbial growth incubated for 18 hrs by broth microdilution method; assay type: functional
Staphylococcus aureus [18] = test: Antibacterial activity against multidrug resistant Staphylococcus aureus assessed as reduction in bacterial growth at 32 microg/mL by bactericidal kinetic assay; assay type: functional, organism-based; conditions: dose 32.0 µg/ml, time 0.5-4 hrs
Pseudomonas aeruginosa [19] = test: Antimicrobial activity against multidrug resistant Pseudomonas aeruginosa at 1.9 to 500 microg/ml in presence of lipopolysaccharide by checkerboard microdilution assay; assay type: functional, organism-based; conditions: dose 1.9-500 µg/ml
Staphylococcus aureus [20] = test: Drug resistance, ratio of MIC for Staphylococcus aureus ATCC 29213 after 16 passages exposure to MIC for Staphylococcus aureus ATCC 29213 after first exposure; assay type: functional
Pseudomonas aeruginosa [21] = test: In vivo antibacterial activity against multidrug resistant Pseudomonas aeruginosa infected in acute peritonitis C57BL/6 mouse model assessed as reduction in tubular dilation at 5 to 20 mg/kg, ip measured after 12 hrs by H and E staining based analysis; assay type: functional, organism-based; conditions: dose 5-20 mg/kg
Cell membrane [22] = test: Induction of cytoplasmic membrane depolarization in multidrug resistant Pseudomonas aeruginosa assessed as increase in fluorescence intensity measured for 12 min by DISC3-5 dye based fluorescence analysis; assay type: subcellular; conditions: dose 4-32 µg/ml
Staphylococcus aureus [23] = test: Induction of morphological changes in multidrug resistant Staphylococcus aureus assessed as surface roughening at 16 microg/ml incubated for 1 hrs by SEM analysis; assay type: functional, organism-based; conditions: dose 16.0 µg/ml
Staphylococcus aureus [24] = test: Drug resistance, ratio of MIC for multidrug resistant Staphylococcus aureus after 16 passages to MIC for multidrug resistant Staphylococcus aureus after first exposure; assay type: functional
[25] = Cytotoxicity against human BEAS-2B cells assessed as survival rate at 64 microg/ml measured after 24 hrs by CCK-8 assay relative to control; assay type: toxicity, cell-based; conditions: at 64 µg/mL, read-out: Survival
Pseudomonas aeruginosa [26] = test: In vivo antibacterial activity against multidrug resistant Pseudomonas aeruginosa infected in acute peritonitis C57BL/6 mouse model assessed as reduction in pulmonary edema at 5 to 20 mg/kg, ip measured after 12 hrs by H and E staining based analysis; assay type: functional, organism-based; conditions: dose 5-20 mg/kg
[27] = Hepatotoxicity in female C57BL/6 mouse assessed as change in AST level at 20 mg/kg, ip administered daily and measured for 5 days; assay type: toxicity, organism-based; conditions: in vivo, 120 h, time 5 day
[28] = Toxicity in female C57BL/6 mouse assessed as histopathological change in heart at 20 mg/kg, ip administered daily and measured for 5 days by H and E staining based analysis; assay type: organism-based; conditions: in vivo, 120 h, time 5 day
Cell membrane [29] = test: Induction of cytoplasmic membrane depolarization in multidrug resistant Pseudomonas aeruginosa assessed as increase in fluorescence intensity at MIC concentration measured within 1 min by DISC3-5 dye based fluorescence analysis; assay type: subcellular
Pseudomonas aeruginosa [30] = test: In vivo antibacterial activity against multidrug resistant Pseudomonas aeruginosa infected in acute peritonitis C57BL/6 mouse model assessed as decrease in IL-1beta level in serum at 5 to 20 mg/kg, ip measured after 12 hrs by ELISA; assay type: functional, organism-based; conditions: dose 5-20 mg/kg
Pseudomonas aeruginosa [31] = test: Antimicrobial activity against multidrug resistant Pseudomonas aeruginosa at 1.9 to 500 microg/ml in presence of phosphatidylglycerol acid by checkerboard microdilution assay; assay type: functional, organism-based; conditions: dose 1.9-500 µg/ml
Cell membrane [32] = test: Induction of outer cell membrane permeabilization in multidrug resistant Pseudomonas aeruginosa assessed as increase in fluorescence intensity at >16 microg/ml measured for 12 mins by NPN uptake assay; assay type: subcellular; conditions: dose > 16.0 µg/ml
Staphylococcus aureus [33] = test: Induction of morphological changes in multidrug resistant Staphylococcus aureus assessed as effect on cell integrity at 16 microg/ml incubated for 1 hrs by SEM analysis; assay type: functional, organism-based; conditions: dose 16.0 µg/ml
Pseudomonas aeruginosa [34] = test: Induction of morphological changes in multidrug resistant Pseudomonas aeruginosa assessed as effect on cell integrity at 16 microg/ml incubated for 1 hrs by SEM analysis; assay type: functional, organism-based; conditions: dose 16.0 µg/ml
[35] = Cytotoxicity against human BEAS-2B cells assessed as inhibition of cell growth measured after 24 hrs by CCK-8 assay; assay type: toxicity, cell-based

For `CC(C)C[C@H](NC(=O)CN)C(=O)N[C@@H](CCCNC(=N)N)C(=O)N[C@@H](CCN)C(=O)N[C@@H](Cc1c[nH]c2ccccc12)C(=O)N[C@@H](CC(C)C)C(=O)N[C@@H](CCCNC(=N)N)C(=O)N[C@@H](CCN)C(=O)N[C@@H](Cc1ccccc1)C(=O)N[C@@H](CCN)C(=O)N[C@@H](CCN)C(=O)N[C@@H](Cc1ccccc1)C(=O)N[C@@H](Cc1c[nH]c2ccccc12)C(=O)O` (H-GLR[Dab]WLR[Dab]F[Dab][Dab]FW-OH), the Activity [1] was “Non-toxic”, the Activity (Pseudomonas aeruginosa [2]) was “Time-dependent-effect” and the Activity (Staphylococcus aureus [3]) was “Active”. For the same molecule, the Activity [4] was “Non-toxic”, the Activity (Pseudomonas aeruginosa [5]) was “Active” and the Activity (Pseudomonas aeruginosa [6]) was “Active”. For the same molecule, the Activity (Pseudomonas aeruginosa [7]) was “Active”, the Activity (Pseudomonas aeruginosa [8]) was “Active” and the Activity (Pseudomonas aeruginosa [9]) was “Active”. For the same molecule, the Activity [10] was “Toxic”, the remaining at 24 h [11] was 40% and the Activity [12] was “Non-toxic”. The Activity (Pseudomonas aeruginosa [13]) was “Active”, the Activity (Cell membrane [14]) was “Active” and the Activity (Pseudomonas aeruginosa [15]) was “Active”. The Activity (Pseudomonas aeruginosa [16]) was “Active”, the MIC (Escherichia coli) was 4.8 µM and the MIC (Staphylococcus aureus [17]) was 4.8 µM. For the same molecule, the Activity (Staphylococcus aureus [18]) was “Time-dependent-effect”, the Activity (Pseudomonas aeruginosa [19]) was “inactive” and the Ratio (Staphylococcus aureus [20]) was <2. For the same molecule, the Activity (Pseudomonas aeruginosa [21]) was “Active”, the Activity (Cell membrane [22]) was “Dose-dependent-effect” and the Activity (Staphylococcus aureus [23]) was “Active”. The Ratio (Staphylococcus aureus [24]) was <2, the viability at 24 h, 64 µg/mL [25] was > 80% and the Activity (Pseudomonas aeruginosa [26]) was “Active”. For the same molecule, the Activity [27] was “Non-toxic”, the Activity [28] was “Non-toxic” and the Activity (Cell membrane [29]) was “Active; Maximal Depolarization Observed”. The Activity (Pseudomonas aeruginosa [30]) was “Active”, the Activity (Pseudomonas aeruginosa [31]) was “inactive” and the Activity (Cell membrane [32]) was “Active”. For the same molecule, the Activity (Staphylococcus aureus [33]) was “Active”, the Activity (Pseudomonas aeruginosa [34]) was “Active” and the CC50 at 24 h [35] was > 64 µg/mL.
